Patent US8362034B2, “Quinoline compound, and composition containing centipede extract or compounds isolated therefrom for prevention and treatment of cardiovascular disease” (Korea Research Institute of Bioscience and Biotechnology, priority 2005, dated 2013)

Assays:
LDL = test: LDL-antioxidant activity by TBARS (Cu2+-mediated LDL-oxidation); format: biochemical, human
Method: Ed., Methods in Enzymology. Vol. 234, Oxygen radicals in biological systems Part D. Academic press, San Diego, 1994]. Three hundred ml of human plasma was taken, followed by centrifugation at 100,000×g for 24 hours with an ultracentrifuge. VLDL/chylomicrom layer floating in the supernatant was eliminated. […] At that time, the compounds were dissolved in dimethylsulfoxide (DMSO) and diluted at different concentrations to be ready for the experiment. DMSO alone was used as a negative control. As a positive control, probucol, a known antioxidant, was added. To each solution was added 10 μl of 0.25 mM CuSO4, followed by reaction at 37° C. for 4 hours. The reaction was terminated by addition of 1 ml of 20% trichloroacetic acid (TCA) solution. 1 ml of 0.67% TBA solution dissolved in 0.05 N NaOH solution was added thereto, followed by stirring for 10 seconds. The solution was heated at 95° C. for 5 minutes to induce color development and then cooled down with ice water. The solution was centrifuged at 3000 rpm for 5 minutes to separate the supernatant and OD540 was measured with UV/VIS spectrophotometer to measure the level of malondialdehyde (MDA) generated by the color development. In the meantime, to calculate the standard curve of malondialdehyde, the stock solution of malonaldehyde bis (dimethylacetal) was diluted, resulting in PBS standard solution containing 0˜10 nmol malondialdehyde. […] The malondialdehyde generated from the compounds of the invention was quantified and inhibitory activity and IC50 were also calculated.

hACAT-1 = biological target: T1, hACAT-1 (Homo sapiens, UniProt P35610); test: ACAT activity, hACAT-1 microsomes, [1-14C]oleoyl-CoA; format: biochemical; conditions: 100 μg/ml; read-out: Inhibitory activity (%) hACAT-1
T1 construct: made in house; host or cells: baculovirus; virus produced in sf9, protein expressed in Hi5 insect cells; microsome fraction used
T1 sequence (P35610 1-550): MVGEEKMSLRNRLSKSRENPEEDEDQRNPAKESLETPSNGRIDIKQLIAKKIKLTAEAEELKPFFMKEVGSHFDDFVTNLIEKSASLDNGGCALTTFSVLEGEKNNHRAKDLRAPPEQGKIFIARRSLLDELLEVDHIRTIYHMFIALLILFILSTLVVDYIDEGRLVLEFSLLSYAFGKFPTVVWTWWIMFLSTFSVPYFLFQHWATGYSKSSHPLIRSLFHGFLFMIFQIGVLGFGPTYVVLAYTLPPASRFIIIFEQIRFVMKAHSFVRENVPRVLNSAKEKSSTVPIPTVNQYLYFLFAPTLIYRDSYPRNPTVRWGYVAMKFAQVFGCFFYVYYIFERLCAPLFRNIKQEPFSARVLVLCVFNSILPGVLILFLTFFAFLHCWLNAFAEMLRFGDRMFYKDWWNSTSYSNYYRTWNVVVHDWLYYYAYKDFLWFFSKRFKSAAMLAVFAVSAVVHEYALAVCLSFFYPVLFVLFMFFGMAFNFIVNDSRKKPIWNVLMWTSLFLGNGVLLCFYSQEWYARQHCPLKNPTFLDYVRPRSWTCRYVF
Excerpt: (§1) To investigate the effect on human ACAT-1 and ACAT-2 activities, hACAT-1 and hACAT-2 proteins were obtained using baculovirus expression system.
(§2) hACAT-1 and hACAT-2 cDNAs, obtained by human liver cDNA library screening, were inserted into the baculovirus transfer vector, which was introduced into an insect cell line sf9 to produce virus. Then, recombinant virus of each hACAT-1 and hACAT-2 was separated by plaque purification, followed by amplification three times to raise titer of the viral stock. Hi5 insect cells having high protein expression efficiency were infected with the recombinant virus (1 multiplicity of infection), followed by shaking culture at 27° C. for a day. Centrifugation was performed at 500×g for 15 minutes to separate microsome fractions from Hi5 cells over-expressing hACAT-1 and hACAT-2. The resultant cells were lysed in a hypotonic buffer by quick freezing-quick thawing, followed by ultracentrifugation at 100,000×g for one hour. The obtained microsome fractions were suspended in the hypotonic buffer until the concentration of the protein reached 8 mg/ml, which was stored in a deep freezer until use.
(§3) To measure the ACAT activity, [1-^14C] oleoly-CoA (56.0 μCi/μmol; Amersham) was used as a substrate and a method of Brecher & Chan was used with a slight modification [P. Brecher and C. Chan, Biochem. Biophys. Acta, 617, 458, 1980].
(§4) Ten μl of the centipede extracts or the compound prepared in the above Example was mixed with 4.0 μl of the microsomal solution prepared in Experimental Example <2-1>, 20.0 μl of an activity analyzing buffer (0.5 M KH2PO4, 10 mM DTT, pH 7.4; Sigma), 15.0 μl of fatty acid-free bovine serum albumin (fatty acid-free BSA, stock concentration 40 mg/ml; Sigma), 2.0 μl of cholesterol (stock solution 20 mg/ml; Sigma) and 41.0 μl of distilled water, which was preincubated at 37° C. for 15 minutes. […] The radioactivity of the mixture was measured with 1450 Microbeta liquid scintillation counter (Wallacoy).
(§5) ACAT activity was calculated as pmol of cholesteryl oleate synthesized per 1 mg of protein in one minute (pmol/minute/mg of protein).

hACAT-2 = biological target: T2, hACAT-2 (Homo sapiens, UniProt O75908); test: ACAT activity, hACAT-2 microsomes, [1-14C]oleoyl-CoA; format: biochemical; conditions: 100 μg/ml; read-out: Inhibitory activity (%) hACAT-2
T2 construct: made in house; host or cells: baculovirus; virus produced in sf9, protein expressed in Hi5 insect cells; microsome fraction used
T2 sequence (O75908 1-522): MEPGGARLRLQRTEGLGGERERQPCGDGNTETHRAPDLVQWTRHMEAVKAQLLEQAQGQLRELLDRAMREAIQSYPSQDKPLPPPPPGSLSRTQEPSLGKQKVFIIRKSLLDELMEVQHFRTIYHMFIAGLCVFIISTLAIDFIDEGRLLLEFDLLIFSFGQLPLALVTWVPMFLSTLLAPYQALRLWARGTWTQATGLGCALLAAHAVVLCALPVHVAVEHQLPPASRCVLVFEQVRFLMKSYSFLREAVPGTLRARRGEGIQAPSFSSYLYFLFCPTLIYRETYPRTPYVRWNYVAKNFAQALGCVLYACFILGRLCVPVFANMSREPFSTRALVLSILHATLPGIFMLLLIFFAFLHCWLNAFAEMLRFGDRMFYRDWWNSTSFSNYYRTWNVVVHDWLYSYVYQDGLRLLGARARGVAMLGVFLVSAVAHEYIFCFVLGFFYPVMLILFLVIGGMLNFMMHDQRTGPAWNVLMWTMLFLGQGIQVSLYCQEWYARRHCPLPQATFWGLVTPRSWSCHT
Excerpt: as §1, §2, §3, §4, §5

Row | IC50 (LDL) [µM] | inhibition at 100 µg/mL (hACAT-1) [%] | inhibition at 100 µg/mL (hACAT-2) [%] | SMILES
1 | 2.6 | 60 | 50 | Oc1cnc2c(O)cccc2c1 [Compound 1, 3,8-dihydroxyquinoline]
2 | 3.1 | – | – | CC(C)(Sc1cc(C(C)(C)C)c(O)c(C(C)(C)C)c1)Sc1cc(C(C)(C)C)c(O)c(C(C)(C)C)c1 [Probucol, probucol, reference compound]
3 | 8.2 | 63 | 51 | CC(C)(C)c1ccc(O)c(C(C)(C)C)c1 [Compound 3, 2,4-di-tert-butylphenol]
4 | 63 | 79 | 58 | COc1c(O)nc2c(O)cccc2c1OC [Compound 2, 3,4-dimethoxyquinoline-2,8-diol]
